In US8105797B2, “Diagnostic test” (priority 2004, dated 2012):

Each sequence was assayed on PBMCs from healthy unexposed BCG-vaccinated donors.
Type: cell-based, human

Row | Sequence | response of BCG-vaccinated unexposed donor to individual peptide
1 | AAKLAGLVFPQPPAP (listed as Mycobacterium tuberculosis) [16-30, from Rv3878] | responded
2 | DTFYDRAQEYSQVLQ (listed as Mycobacterium tuberculosis) [26-40, from Rv3879c, pool 1] | responded
3 | ESLVSDGLPGVKAAL (listed as Mycobacterium tuberculosis) [61-75, from Rv3878] | responded
4 | LDPGASQSTTNPIFG (listed as Mycobacterium tuberculosis) [peptide 174-188, from Rv3873] | responded
5 | LTATNFFGINTIPIA [119-133] | responded
6 | YFIRMWNQAALAMEV (listed as Mycobacterium tuberculosis) [139-153, from pool 2 of Rv3873] | responded
